Data reported in US9463252B2, “Auristatin drug linker conjugates” (priority 2008, dated 2016).

How the values were obtained:
786-O = assay: Cytotoxicity of Auristatin-Peptide-h1F6 conjugates, resazurin assay; type: cell-based, human
Description: (§1) The conjugates contain approximately 4 drugs per antibody.

Caki-1 = assay: as above; type: cell-based
Description: as §1

L428 = assay: as above; type: cell-based
Description: as §1

HCT-116 (CD70−) = assay: Cytotoxicity of Auristatin-Peptide-h1F6 conjugates, CD70- control cell line; type: cell-based; conditions: Table 5, ~4 drugs/Ab
Description: as §1

Caki-2 = assay: Cytotoxicity of Auristatin-Peptide-h1F6 conjugates, resazurin assay; type: cell-based
Experimental: as §1
Following the procedure described as Examples 57 and 58, Auristatin-Peptide-h1F6 conjugates were evaluated on CD70^+ cell, such as 786-O, Caki-1, Caki-2, and L428. Conjugates contain approximately 4 drugs per antibody.

[1] = Table 5, h1F6 conjugates, ~4 drugs/Ab
[2] = Table 10, h1F6-Drug(4) conjugates, aryl or alkyl maleimides

Substance | IC50 786-O (786-O; [1]) | IC50 Caki-1 (Caki-1; [1]) | IC50 L428 (L428; [1]) | IC50 HCT-116 (CD70−) (HCT-116 (CD70−)) | IC50 Caki-2 (Caki-2; [1]) | IC50 786-O (786-O; [2]) | IC50 Caki-1 (Caki-1; [2]) | IC50 L428 (L428; [2]) | IC50 Caki-2 (Caki-2; [2])
AW-Tyrosine-(D)Aspartic acid-diaminoethane-propionyl maleimide [AW-Tyr-(D)Asp] | 0.018 µg/mL | 0.016 µg/mL | 0.021 µg/mL | >1 µg/mL | 0.033 µg/mL |  |  |  | 
AW-Asparagine-(D)Lysine-diaminoethane-propionyl maleimide [AW-Asn-(D)Lys] | 0.016 µg/mL | 0.015 µg/mL | 0.019 µg/mL | >1 µg/mL | 0.026 µg/mL |  |  |  | 
AF-Methionine-(D)Lysine-(D)Lysine-diaminoethane-propionyl maleimide [AF-Met-(D)Lys-(D)Lys] | 0.008 µg/mL | 0.012 µg/mL | >1 µg/mL | >1 µg/mL | 0.025 µg/mL |  |  |  | 
AF-Arginine-(D)Lysine-diaminoethane-propionyl maleimide [AF-Arg-(D)Lys] | 0.008 µg/mL | 0.01 µg/mL | 0.047 µg/mL | >1 µg/mL | 0.008 µg/mL |  |  |  | 
AM-Asparagine-diaminoethane-propionyl maleimide [AM-Asn] | 0.03 µg/mL | 0.031 µg/mL | 0.032 µg/mL | >1 µg/mL | 0.063 µg/mL |  |  |  | 
AF-Citrulline-(D)Lysine-diaminoethane-propionyl maleimide [AF-Cit-(D)Lys] | 0.01 µg/mL | 0.011 µg/mL | 0.047 µg/mL | >1 µg/mL | 0.016 µg/mL |  |  |  | 
AF-Asparagine-Proline-diaminoethane-propionyl maleimide [AF-Asn-Pro] | 0.011 µg/mL | 0.012 µg/mL | 0.023 µg/mL | >1 µg/mL | 0.032 µg/mL |  |  |  | 
AF-Lysine-(D)Lysine-diaminoethane-propionyl maleimide [AF-Lys-(D)Lys] | 0.009 µg/mL | 0.008 µg/mL | 0.037 µg/mL | >1 µg/mL | 0.009 µg/mL |  |  |  | 
AF-Glutamine-(D)Lysine-diaminoethane-propionyl maleimide [AF-Gln-(D)Lys] | 0.012 µg/mL | 0.011 µg/mL | 0.209 µg/mL | >1 µg/mL | 0.014 µg/mL |  |  |  | 
AF-Asparagine-(D)Lysine-(D)Lysine-diaminoethane-propionyl maleimide [AF-Asn-(D)Lys-(D)Lys] | 0.009 µg/mL | 0.01 µg/mL | 0.022 µg/mL | >1 µg/mL | 0.03 µg/mL |  |  |  | 
AM-Asparagine-(D)Lysine-diaminoethane-benzoyl maleimide [AM-Asn-(D)Lys-aryl maleimide] |  |  |  |  |  | 0.016 µg/mL | 0.01 µg/mL | 0.023 µg/mL | 0.017 µg/mL
AF-Methionine-Proline-diaminoethane-propionyl maleimide [AF-Met-Pro] | 0.008 µg/mL | 0.015 µg/mL | 0.008 µg/mL | >1 µg/mL | 0.025 µg/mL |  |  |  | 
AF-Methionine-(D)Aspartic Acid-diaminoethane-propionyl maleimide [AF-Met-(D)Asp] | 0.008 µg/mL | 0.01 µg/mL | 0.011 µg/mL | >1 µg/mL | 0.035 µg/mL |  |  |  | 
AW-Methionine-(D)Lysine-diaminoethane-benzoyl maleimide [AW-Met-(D)Lys-aryl-maleimide] |  |  |  |  |  | 0.012 µg/mL | 0.015 µg/mL | >1 µg/mL | 0.012 µg/mL
AM-Methionine-(D)Lysine-diaminoethane-propionyl maleimide [AM-Met-(D)Lys] | 0.056 µg/mL | 0.039 µg/mL | 1 µg/mL | >1 µg/mL | 0.251 µg/mL |  |  |  | 
AM-Tyrosine-(D)Aspartic Acid-diaminoethane-propionyl maleimide [AM-Tyr-(D)Asp] | 0.032 µg/mL | 0.023 µg/mL | 0.03 µg/mL | >1 µg/mL | 0.071 µg/mL |  |  |  | 
AF-Methionine-(D)Valine-diaminoethane-propionyl maleimide [AF-Met-(D)Val] | 0.005 µg/mL | 0.006 µg/mL | 0.008 µg/mL | >1 µg/mL | 0.032 µg/mL |  |  |  | 
AW-Asparagine-diaminoethane-propionyl maleimide [AW-Asn] | 0.018 µg/mL | 0.015 µg/mL | 0.022 µg/mL | >1 µg/mL | 0.03 µg/mL |  |  |  | 
AF-Tyrosine-(D)Lysine-diaminoethane-propionyl maleimide [AF-Tyr-(D)Lys] | 0.009 µg/mL | 0.011 µg/mL | 0.01 µg/mL | >1 µg/mL | 0.012 µg/mL |  |  |  | 
AF-Methionine-(D)Methionine-diaminoethane-propionyl maleimide [AF-Met-(D)Met] | 0.004 µg/mL | 0.005 µg/mL | 0.004 µg/mL | >1 µg/mL | 0.013 µg/mL |  |  |  | 
AF-Homo-β-Phenylalanine-(D)Aspartic Acid-diaminoethane-propionyl maleimide [AF-hPhe-(D)Asp] | 0.01 µg/mL | >1 µg/mL | 0.029 µg/mL | >1 µg/mL | >1 µg/mL |  |  |  | 
